Assay type in all cases: cell-based
Test [1] addresses Serotonin transporter (SERT) (Homo sapiens (Human), UniProt P31645). The test can be described thus: Serotonin transporter (SERT) uptake inhibition, [3H]-Serotonin uptake in HEK cells. As to conditions: HEK cells expressing recombinant SERT, [3H]-Serotonin 10 nM; for inhibition at 10 µM / inhibition at 100 µM: HEK293; for inhibition at 10 µM: 10 μM test compound; for inhibition at 100 µM: 100 μM test compound. As to the method:
Serotonin transporter (SERT) Uptake Inhibition: Compound activity was assessed using an in vitro assay. Briefly, HEK cells expressing recombinant SERT were plated at 50,000 cells/well on a 96 well plate pre-coated with Matrigel one day prior to the experiment. Culture medium (DMEM/FBS) was removed from each well, and 30 μl of assay buffer (Tris-HCl 50 mM, EDTA 4 mM, BDA 0.1%) with the desired concentration of test compound was added. The plate was incubated at 37° C. for 15 minutes. Assay buffer (30 μl) containing the same concentration of compound diluted in [3H]-Serotonin uptake buffer (final concentration 10 nM) was added to each well and the plate was incubated at 37° C. for 5 minutes. The reaction mixture was removed, and the cells were washed (2×) with 100 μl ice-cold assay buffer. Lysis buffer (50 μl) was added to the cells followed by a 5 minute incubation with gentle shaking at room temperature. The lysate was transferred to a 96 well isoplate. Optiphase supermix (100 μl) was added to each well and was thoroughly mixed. Radioactivity was counted with Microbeta Counter and reported as counts per minute (CPM). Fluoxetine was used as a control to measure non-specific uptake and for data normalization. Percent inhibition of [3H]-Serotonin uptake is based on the calculation: 100×(1−(CPMtest sample−CPMnon-specific uptake)/(CPMMAX−CPMMIN)).

The target in test [2] is Dopamine transporter (DAT) (Homo sapiens (Human), UniProt Q01959). The test can be described thus: Dopamine transporter (DAT) uptake inhibition, [3H]-dopamine uptake in HEK cells. Particulars: HEK cells expressing recombinant DAT; [3H]-dopamine 20 nM. As to the method: (§1) Dopamine transporter (DAT) Uptake Inhibition: Compound activity was assessed using a convenient in vitro assay. Briefly, HEK cells expressing recombinant DAT were plated at 50,000 cells/well on a 96 well plate pre-coated with Matrigel one day prior to the experiment. Culture medium (DMEM/FBS) was removed and 30 μl of assay buffer (Tris-HCl 50 mM, EDTA 4 mM, BDA 0.1%) with the desired concentration of test compound was added. The plate was incubated at 37° C. for 15 minutes. Assay buffer (30 μl) containing the same concentration of compound diluted in [3H]-Dihydroxyphenylethylamine (dopamine) uptake buffer (final concentration 20 nM) was added to each well and the plate was incubated at 37° C. for 5 minutes. The reaction mixture was removed, and the cells were washed with 100 μl ice-cold assay buffer twice. Lysis buffer (50 μl) was added to the cells followed by a 5 minute incubation with gentle shaking at room temperature. The lysate was transferred to a 96 well isoplate. Optiphase supermix (100 μl) was added to each well with complete mixing. Radioactivity was counted with Microbeta Counter and reported as CPM. Nomifensine was used as a control to measure non-specific uptake and for data normalization. Percent inhibition of [3H]-Dopamine uptake calculations: 100×(1−(CPMtest sample−CPMnon-specific uptake)/(CPMMAX−CPMMIN)).

The target in test [3] is Norepinephrine transporter (NET) (Homo sapiens (Human), UniProt P23975). The test can be described thus: Norepinephrine transporter (NET) uptake inhibition, [3H]-Norepinephrine uptake in HEK cells. As to conditions: HEK cells expressing recombinant NET; [3H]-Norepinephrine 20 nM. As to the method:
as §1, with “Norepinephrine” for “Dopamine”, “(NET)” for “(DAT)”, “NET” for “DAT”, “[3H]-Norepinephrine” for “[3H]-Dihydroxyphenylethylamine (dopamine)”, “Desipramine” for “Nomifensine”, “[3H]-Norepinephrine” for “[3H]-Dopamine”

Results on three compounds are retold here after US20240425470A1, “S[…] AMINE MODULATORS OF MONOAMINERGIC TRANSPORTERS” (ATAI Life Sciences AG, priority 2023, published 2024).

As a reminder, the inhibition is the share of the control response that was lost under treatment. What is called IC50 is the concentration that gives 50% inhibition.

SMILES strings stand for the structures.

On to `CC(N)Cc1ccc2occ(F)c2c1` (stereo not drawn) [Compound 1, 1-(3-fluorobenzofuran-5-yl)propan-2-amine], for which, in test [1], the inhibition at 10 µM is 72.7%, the inhibition at 100 µM was determined as 97.9% and the IC50 is 6.75 µM. For the same compound, the IC50 in test [2] is 15.6 µM. Besides, the IC50 in test [3] is 4.73 µM.

With `CNC(C)Cc1ccc2c(c1)OCO2` (stereo not drawn) [MDMA, 3,4-Methylenedioxymethamphetamine, reference compound], in test [1], the inhibition at 10 µM worked out at 53.3%, the inhibition at 100 µM was 98% and the IC50 is 3.35 µM. The IC50 in test [2] came to 5.25 µM. The IC50 in test [3] was 1.42 µM.

On to `CNC(C)Cc1ccc2occ(F)c2c1` (stereo not drawn) [Compound 2, 1-(3-fluorobenzofuran-5-yl)-N-methylpropan-2-amine], for which, in test [1], the inhibition at 10 µM amounted to 64.7%, the inhibition at 100 µM was determined as 99% and the IC50 is 5.72 µM. For the same compound, in test [2], the IC50 is 9.59 µM. Further, the IC50 in test [3] worked out at 5.02 µM.
